Results as given in patent US10112937B2, “P2X7 modulators and methods of use” (Janssen Pharmaceutica NV, priority 2013, dated 2018).

What was measured:
Assay type in all cases: cell-based
human P2X7 [1] = molecular target: T1, human P2X7 (Homo sapiens (Human), UniProt Q99572); experiment: P2X7 antagonism in human PBMCs (IL-1β release after LPS + Bz-ATP, ELISA); details: human PBMCs; for PBMC 1 μM (% control): test compound 1 μM
human P2X7 [2] = molecular target: T1, human P2X7; experiment: Ca2+ flux (FLIPR) in 1321N1 cells expressing recombinant human P2X7;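 further: cells loaded with Calcium-4 dye, preincubated with test compound for 30 min, fluorescence change read 180 s after agonist addition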
Protocol: P2X7 Antagonism in Recombinant Human P2X7 Cells or Recombinant Rat P2X7 Cells: (a) Ca^2+ Flux and (b) Radioligand Binding
1321N1 cells expressing the recombinant human or rat P2X7 channel was cultured in HyQ DME/(HyClone/Dulbecco's Modified Eagle Medium) high glucose supplemented with 10% Fetal Bovine Serum (FBS) and appropriate selection marker. Cells were seeded at a density of 25000 cells/well (96-well clear bottom black walled plates) in 100 μl volume/well. On the day of the experiment, cell plates were washed with assay buffer, containing (in mM): 130 NaCl, 2 KCl, 1 CaCl2, 1 MgCl2, 10 HEPES, 5 glucose; pH 7.40 and 300 mOs. After the wash, cells were loaded with the Calcium-4 dye (Molecular Device) and incubated in the dark for 60 minutes. Test compounds were prepared at 250× the test concentration in neat DMSO. Intermediate 96-well compound plates were prepared by transferring 1.2 μL of the compound into 300 μL of assay buffer. A further 3× dilution occurred when transferring 50 μL/well of the compound plate to 100 μL/well in the cell plate. Cells were incubated with test compounds and dye for 30 minutes. […] The fluorescence change was measured 180 seconds after adding the agonist.

rat P2X7 = rat P2X7 (Rattus norvegicus (Rat), UniProt Q64663); experiment: Ca2+ flux (FLIPR) in 1321N1 cells expressing recombinant rat P2X7;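 further: Calcium-4 dye fluorescence change read 180 s after agonist addition, with cells preincubated 30 min with compound and dye in 96-well plates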
[3] = 1321N1 cells, recombinant human P2X7, 250 μM BzATP
[4] = 1321N1 cells, recombinant rat P2X7, 250 μM BzATP
[5] = 10 μM test compound, LPS + Bz-ATP
[6] = Ca2+ flux, 250 μM BzATP, human P2X7 1321N1 cells
[7] = Ca2+ flux, 250 μM BzATP, rat P2X7 1321N1 cells

Sequence of rat P2X7 (Q64663 whole entry): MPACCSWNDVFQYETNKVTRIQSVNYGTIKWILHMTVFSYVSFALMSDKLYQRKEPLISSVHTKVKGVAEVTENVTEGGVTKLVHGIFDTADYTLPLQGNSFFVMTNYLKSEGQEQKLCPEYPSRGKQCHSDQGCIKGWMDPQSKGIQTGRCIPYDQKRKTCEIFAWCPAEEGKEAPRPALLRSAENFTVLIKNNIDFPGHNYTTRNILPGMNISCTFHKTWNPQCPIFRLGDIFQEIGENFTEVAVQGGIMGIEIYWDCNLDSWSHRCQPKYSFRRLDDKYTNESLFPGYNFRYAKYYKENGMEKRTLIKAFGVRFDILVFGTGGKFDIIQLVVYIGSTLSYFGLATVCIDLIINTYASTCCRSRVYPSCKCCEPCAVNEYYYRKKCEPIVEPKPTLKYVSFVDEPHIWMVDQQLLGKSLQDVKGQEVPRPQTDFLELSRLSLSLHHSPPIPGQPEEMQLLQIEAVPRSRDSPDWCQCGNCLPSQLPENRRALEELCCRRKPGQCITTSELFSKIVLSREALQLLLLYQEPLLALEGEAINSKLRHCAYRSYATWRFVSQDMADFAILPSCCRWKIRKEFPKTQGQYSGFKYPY
T1 sequence (Q99572 whole entry): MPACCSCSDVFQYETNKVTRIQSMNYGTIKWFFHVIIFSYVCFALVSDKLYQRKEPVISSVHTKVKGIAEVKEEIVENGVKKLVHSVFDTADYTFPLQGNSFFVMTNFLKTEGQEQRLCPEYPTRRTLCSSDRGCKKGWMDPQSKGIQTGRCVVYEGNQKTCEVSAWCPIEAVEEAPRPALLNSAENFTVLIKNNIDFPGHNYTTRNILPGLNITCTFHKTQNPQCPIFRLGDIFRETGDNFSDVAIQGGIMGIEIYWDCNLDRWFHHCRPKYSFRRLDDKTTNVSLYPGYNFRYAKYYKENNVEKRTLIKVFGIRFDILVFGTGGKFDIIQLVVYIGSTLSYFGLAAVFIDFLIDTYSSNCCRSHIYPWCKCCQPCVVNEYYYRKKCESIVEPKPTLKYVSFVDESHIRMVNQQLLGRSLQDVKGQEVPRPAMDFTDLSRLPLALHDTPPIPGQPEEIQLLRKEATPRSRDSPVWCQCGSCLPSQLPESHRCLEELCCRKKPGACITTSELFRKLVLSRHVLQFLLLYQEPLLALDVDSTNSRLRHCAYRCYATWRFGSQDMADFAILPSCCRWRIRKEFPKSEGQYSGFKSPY

| PBMC 1 μM (% control) (human P2X7 [1]) | IC50 (human P2X7 [2]; [3]) [µM] | IC50 (rat P2X7; [4]) [µM] | PBMC 10 μM (% control) (human P2X7 [1]; test compound 10 μM) | PBMC 10 μM (% control) (human P2X7 [1]; [5]) | IC50 (human P2X7 [2]; [6]) [µM] | IC50 (rat P2X7; [7]) [µM] | Compound |
| --- | --- | --- | --- | --- | --- | --- | --- |
| 4.8 | 0.0065 | 0.0362 | – | – | – | – | CCOC(=O)C1c2ncn(-c3cnccn3)c2CCN1C(=O)c1cccc(C(F)(F)F)c1Cl (stereo not drawn) [Example 28, Ethyl 5-{[2-chloro-3-(trifluoromethyl)phenyl]carbonyl}-1-pyrazin-2-yl-4,5,6,7-tetrahydro-1H-imidazo[4,5-c]pyridine-4-carboxylate] |
| −0.1 | 0.0027 | 1.87 | – | – | – | – | O=C(c1cccc(C(F)(F)F)c1Cl)N1CCc2c(nnn2-c2ccccc2)C1 [Example 61, 5-{[2-Chloro-3-(trifluoromethyl)phenyl]carbonyl}-1-phenyl-4,5,6,7-tetrahydro-1H-[1,2,3]triazolo[4,5-c]pyridine] |
| – | 0.002 | 0.053 | 6.5 | – | – | – | O=C(c1cccc(Cl)c1Cl)N1CCc2c(nnn2-c2ncccn2)C1 [Example 67, 5-[(2,3-Dichlorophenyl)carbonyl]-1-pyrimidin-2-yl-4,5,6,7-tetrahydro-1H-[1,2,3]triazolo[4,5-c]pyridine] |
| – | 0.0021 | 0.0304 | 8.3 | – | – | – | O=C(c1cccc(C(F)(F)F)c1Cl)N1CCc2c(nnn2-c2cc(F)ccn2)C1 [Example 131, (2-Chloro-3-(trifluoromethyl)phenyl)(1-(4-fluoropyridin-2-yl)-6,7-dihydro-1H-[1,2,3]triazolo[4,5-c]pyridin-5(4H)-yl)methanone] |
| – | 0.255 | 1.35 | 3.4 | – | – | – | O=C(c1ccc(Cl)cc1F)N1CCc2c(nnn2-c2ncccn2)C1 [Example 280, (4-chloro-2-fluorophenyl)(1-(pyrimidin-2-yl)-6,7-dihydro-1H-[1,2,3]triazolo[4,5-c]pyridin-5(4H)-yl)methanone] |
| – | 0.0022 | 0.349 | −1.9 | – | – | – | Cc1c(C(=O)N2CCc3c(nnn3-c3ncccn3)C2)cccc1C(F)(F)F [Example 281, (2-methyl-3-(trifluoromethyl)phenyl)(1-(pyrimidin-2-yl)-6,7-dihydro-1H-[1,2,3]triazolo[4,5-c]pyridin-5(4H)-yl)methanone] |
| – | > 10 | > 10 | 98.2 | – | – | – | Cc1cc(-n2nnc3c2CCN(C(=O)c2cc(C(F)(F)F)ccc2Cl)C3C)ncc1F (stereo not drawn) [Example 352, (2-chloro-5-(trifluoromethyl)phenyl)(1-(5-fluoro-4-methylpyridin-2-yl)-4-methyl-6,7-dihydro-1H-[1,2,3]triazolo[4,5-c]pyridin-5(4H)-yl)methanone] |
| – | > 10 | > 10 | 75.3 | – | – | – | Cc1cc(-n2nnc3c2CCN(C(=O)c2cc(Cl)cc(C(F)(F)F)c2)C3C)ncc1F (stereo not drawn) [Example 361, (3-chloro-5-(trifluoromethyl)phenyl)(1-(5-fluoro-4-methylpyridin-2-yl)-4-methyl-6,7-dihydro-1H-[1,2,3]triazolo[4,5-c]pyridin-5(4H)-yl)methanone] |
| – | 1.66 | 10.1 | 17.2 | – | – | – | Cc1ccnc(-n2nnc3c2CCN(C(=O)c2cccc(OC(F)(F)F)c2F)C3C)c1 (stereo not drawn) [Example 373, (2-fluoro-3-(trifluoromethoxy)phenyl)(4-methyl-1-(4-methylpyridin-2-yl)-6,7-dihydro-1H-[1,2,3]triazolo[4,5-c]pyridin-5(4H)-yl)methanone] |
| – | > 10 | > 10 | 104.3 | – | – | – | Cc1cc(-n2nnc3c2CCN(C(=O)c2cccc(OC(F)(F)F)c2F)C3C)ncc1F (stereo not drawn) [Example 374, (2-fluoro-3-(trifluoromethoxy)phenyl)(1-(5-fluoro-4-methylpyridin-2-yl)-4-methyl-6,7-dihydro-1H-[1,2,3]triazolo[4,5-c]pyridin-5(4H)-yl)methanone] |
| – | 1.38 | > 10 | −6.3 | – | – | – | CC1c2nnn(-c3ncc[nH]3)c2CCN1C(=O)c1cccc(Cl)c1Cl (stereo not drawn) [Example 384, (1-(1H-imidazol-2-yl)-4-methyl-6,7-dihydro-1H-[1,2,3]triazolo[4,5-c]pyridin-5(4H)-yl)(2,3-dichlorophenyl)methanone] |
| – | 9.77 | > 10 | 23.0 | – | – | – | Cc1cc(-n2nnc3c2CCN(C(=O)c2cccc(C(F)(F)F)c2F)C3C)ncn1 (stereo not drawn) [Example 396, (2-fluoro-3-(trifluoromethyl)phenyl)(4-methyl-1-(6-methylpyrimidin-4-yl)-6,7-dihydro-1H-[1,2,3]triazolo[4,5-c]pyridin-5(4H)-yl)methanone] |
| – | 0.538 | > 10 | 0.2 | – | – | – | Cc1nccc(-n2nnc3c2CCN(C(=O)c2cccc(C(F)(F)F)c2Cl)C3C)n1 (stereo not drawn) [Example 398, (2-chloro-3-(trifluoromethyl)phenyl)(4-methyl-1-(2-methylpyrimidin-4-yl)-6,7-dihydro-1H-[1,2,3]triazolo[4,5-c]pyridin-5(4H)-yl)methanone] |
| – | 1.72 | > 10 | 1.1 | – | – | – | Cc1nccc(-n2nnc3c2CCN(C(=O)c2ccnc(C(F)(F)F)c2Cl)C3C)n1 (stereo not drawn) [Example 399, (3-chloro-2-(trifluoromethyl)pyridin-4-yl)(4-methyl-1-(2-methylpyrimidin-4-yl)-6,7-dihydro-1H-[1,2,3]triazolo[4,5-c]pyridin-5(4H)-yl)methanone] |
| – | 16.9 | > 10 | 32.0 | – | – | – | Cc1nccc(-n2nnc3c2CCN(C(=O)c2cccc(C(F)(F)F)c2F)C3C)n1 (stereo not drawn) [Example 400, (2-fluoro-3-(trifluoromethyl)phenyl)(4-methyl-1-(2-methylpyrimidin-4-yl)-6,7-dihydro-1H-[1,2,3]triazolo[4,5-c]pyridin-5(4H)-yl)methanone] |
| – | 0.435 | 12.5 | −0.2 | – | – | – | Cc1cc(-n2nnc3c2CCN(C(=O)c2ccnc(C(F)(F)F)c2Cl)C3C)ncn1 (stereo not drawn) [Example 403, (3-chloro-2-(trifluoromethyl)pyridin-4-yl)(4-methyl-1-(6-methylpyrimidin-4-yl)-6,7-dihydro-1H-[1,2,3]triazolo[4,5-c]pyridin-5(4H)-yl)methanone] |
| – | – | – | – | −0.4 | 1.6 | 2.3 | CCn1ccc(-n2nnc3c2CCN(C(=O)c2cccc(C(F)(F)F)c2Cl)[C@H]3C)n1 [Example 405, (S)-(2-chloro-3-(trifluoromethyl)phenyl)(1-(1-ethyl-1H-pyrazol-3-yl)-4-methyl-6,7-dihydro-1H-[1,2,3]triazolo[4,5-c]pyridin-5(4H)-yl)methanone] |
| – | – | – | – | 0.5 | 0.0289 | 0.0184 | CCn1ccc(-n2nnc3c2CCN(C(=O)c2ccnc(C(F)(F)F)c2F)[C@H]3C)n1 [Example 409, (S)-(1-(1-ethyl-1H-pyrazol-3-yl)-4-methyl-6,7-dihydro-1H-[1,2,3]triazolo[4,5-c]pyridin-5(4H)-yl)(3-fluoro-2-(trifluoromethyl)pyridin-4-yl)methanone] |
| – | – | – | – | −12.6 | 0.0283 | 0.0041 | CC(C)n1ccc(-n2nnc3c2C[C@H](C)N(C(=O)c2cccc(C(F)(F)F)c2Cl)C3)n1 [Example 412, (S)-(2-chloro-3-(trifluoromethyl)phenyl)(1-(1-isopropyl-1H-pyrazol-3-yl)-6-methyl-6,7-dihydro-1H-[1,2,3]triazolo[4,5-c]pyridin-5(4H)-yl)methanone] |
| – | – | – | – | 22.4 | > 10 | 36.6 | CC(C)n1ccc(-n2nnc3c2C[C@H](C)N(C(=O)c2cccc(C(F)(F)F)c2F)C3)n1 [Example 414, (S)-(2-fluoro-3-(trifluoromethyl)phenyl)(1-(1-isopropyl-1H-pyrazol-3-yl)-6-methyl-6,7-dihydro-1H-[1,2,3]triazolo[4,5-c]pyridin-5(4H)-yl)methanone] |
| – | – | – | – | 1.5 | 0.146 | 0.0129 | CC(C)n1ccc(-n2nnc3c2CCN(C(=O)c2cccc(C(F)(F)F)c2F)[C@H]3C)n1 [Example 415, (S)-(2-fluoro-3-(trifluoromethyl)phenyl)(1-(1-isopropyl-1H-pyrazol-3-yl)-4-methyl-6,7-dihydro-1H-[1,2,3]triazolo[4,5-c]pyridin-5(4H)-yl)methanone] |
| – | – | – | – | 1.9 | 0.0473 | 0.0081 | CC(C)n1ccc(-n2nnc3c2C[C@H](C)N(C(=O)c2ccnc(C(F)(F)F)c2Cl)C3)n1 [Example 416, (S)-(3-chloro-2-(trifluoromethyl)pyridin-4-yl)(1-(1-isopropyl-1H-pyrazol-3-yl)-6-methyl-6,7-dihydro-1H-[1,2,3]triazolo[4,5-c]pyridin-5(4H)-yl)methanone] |
| – | – | – | – | −0.4 | 0.092 | 0.0157 | CC(C)n1ccc(-n2nnc3c2CCN(C(=O)c2ccnc(C(F)(F)F)c2F)[C@H]3C)n1 [Example 419, (S)-(3-fluoro-2-(trifluoromethyl)pyridin-4-yl)(1-(1-isopropyl-1H-pyrazol-3-yl)-4-methyl-6,7-dihydro-1H-[1,2,3]triazolo[4,5-c]pyridin-5(4H)-yl)methanone] |

| Compound | PBMC 1 μM (% control) (human P2X7 [1]) | IC50 (human P2X7 [2]; [3]) [µM] | IC50 (rat P2X7; [4]) [µM] | PBMC 10 μM (% control) (human P2X7 [1]; test compound 10 μM) | PBMC 10 μM (% control) (human P2X7 [1]; [5]) | IC50 (human P2X7 [2]; [6]) [µM] | IC50 (rat P2X7; [7]) [µM] |
| --- | --- | --- | --- | --- | --- | --- | --- |
| O=C(c1cccc(C(F)(F)F)c1F)N1CCc2c(nnn2-c2ncccn2)C1 [Example 66, 5-{[2-Fluoro-3-(trifluoromethyl)phenyl]carbonyl}-1-pyrimidin-2-yl-4,5,6,7-tetrahydro-1H-[1,2,3]triazolo[4,5-c]pyridine] | – | 0.0224 | 0.258 | 2.7 | – | – | – |
